Here are results for five compounds from US20150141414A1, “Formulation of Stable Recombinant Alpha-Fetoprotein Conjugated with Anti-Tumor Substance in Target-Delivery System for Treatment of Cancer and Autoimmune Disease” (priority 2013, published 2015).

Where two headings read alike, the source gives them in different places. Starred links: 1 amine or outer side, 2 acyl side, 3 side chain; linkers in the order of their positions; H or OH if unused. Positions of bridges follow the written chain, without caps; N, C: chain ends. Non-standard residues stand in square brackets, D forms with d. Residues, ends and D or L forms follow the SMILES beside them. Chains are numbered I, II in the order given. Actinocin(9to1) = Cc1c2oc3c(C)ccc(C(=O)[*:1])c3nc-2c(C(=O)[*:2])c(N)c1=O; NMeV = CN[C@H](C(=O)O)C(C)C; Sar = CNCC(=O)O

The subject of one data set is rat. The note with it: cited from earlier work.
Another data set has as its system frog. The note with it: intravenous injection; cited from earlier work.
The subject of the next data set is mouse. The note with it: cited from earlier work.
For another data set, the system named is pigeon. Particulars: intravenous injection; cited from earlier work.
For another data set, the system named is cat. The note with it: cited from earlier work.
Data set [1] has as its system Hela cervical cancer cells. Description: MTT cytotoxicity assay, Hela cervical cancer cells. It counts as cell-based. The note with it: Homo sapiens, mean of three determinations, read-out: 50% growth inhibition concentration (1050). The procedure:
The cytotoxicity of dactinomycin incorporated in PLGA conjugated with rAFP was tested with Hela cervical cancer cells. It is recognized that the use of PLGA as the controlled release polymer system is particularly suitable for the intent of the present invention because PLGA is well known for its safety in clinic. The Hela cells were doused with both dactinomycin in bulk. MTT assay was then performed to quantify the inhibitory concentration. […] 1050 was calculated from the cell viability data as the drug concentration in which cell growth was inhibited by 50%.
Background: Tetrazolium assays rely on reduction of a dye to a coloured formazan, in cell work by metabolically active cells.

The subject of data set [2] is lymphocyte of an average healthy person. Kind of data set: Dose-dependent survival of lymphocytes of a healthy person. The format is cell-based. Particulars: Homo sapiens, read-out: 50% growth inhibition concentration. The source says:
Each value depicted in FIGS. 1A and 1B is the mean of three determinations with coefficient of variation less than 20%.

In the case of `CN(Cc1cnc2nc(N)nc(N)c2n1)c1ccc(C(=O)N[C@@H](CCC(=O)O)C(=O)O)cc1` [methotrexate], the LD50 intravenous in the data set on rat (rats, intravenous) is recorded as 14 mg/kg body weight.
`C[C@H]1O[C@@H](O[C@H]2[C@@H](O)C[C@H](O[C@H]3[C@@H](O)C[C@H](O[C@H]4CC[C@@]5(C)[C@H](CC[C@@H]6[C@@H]5CC[C@]5(C)[C@@H](C7=CC(=O)OC7)CC[C@]65O)C4)O[C@@H]3C)O[C@@H]2C)C[C@H](O)[C@@H]1O` [digitoxin]: the LD50 intravenous is 0.73 mg/kg in the data set with frog; 4.1 mg/kg in the data set on mouse (mouse, intravenous injection); 0.32 mg/kg in the data set on pigeon.
Take `C[C@]12CC[C@H](O)C[C@H]1CC[C@@H]1[C@@H]2CC[C@]2(C)[C@@H](c3ccc(=O)oc3)CC[C@]12O` [bufalin]: the LD50 intravenous was 0.14 mg/kg in the data set with cat and 0.74 mg/kg in the data set with mouse (mouse, intravenous).
In the case of `COc1cc2c(Nc3ccc(Br)cc3F)ncnc2cc1OCC1CCN(C)CC1` [vandetanib], the LD50 intravenous with rat (rats, intravenous) is 17-41 mg/kg body weight.
On to `Cc1c2oc3c(C)ccc(C(=O)N[C@@H]4C(=O)N[C@H](C(C)C)C(=O)N5CCC[C@H]5C(=O)N(C)CC(=O)N(C)[C@@H](C(C)C)C(=O)O[C@@H]4C)c3nc-2c(C(=O)N[C@@H]2C(=O)N[C@H](C(C)C)C(=O)N3CCC[C@H]3C(=O)N(C)CC(=O)N(C)[C@@H](C(C)C)C(=O)O[C@@H]2C)c(N)c1=O` [dactinomycin in bulk, Dactinomycin] (I: T[dV]P[Sar][NMeV] / II: T[dV]P[Sar][NMeV]; ester I:1-I:C, II:1-II:C; linker I:N-II:N via Actinocin(9to1)), for which the “oral LD50” value with rat (rat, oral) was 7.2 mg/kg; in the data set with mouse (mouse, oral), 7.8 mg/kg. Further, the “lethal dose as multiple of maximum recommended daily human dose (body surface area basis)” value in the data set on rat (rats, intravenous 500 mcg/kg) is 5.4 times; with mouse (mice, intravenous 700 mcg/kg), 3.8 times. The lethal intravenous dose with rat (rats, intravenous) is 0.5 mg/kg; with mouse (mice, intravenous), 0.7 mg/kg. Also, the IC50 in data set [1] worked out at 1.7 nM; in data set [2], 23.8 nM.
